# Like-named read-outs stand apart in the source and are kept apart here.
# Experiments:
# OATP1B1 [1] = target: T1, OATP1B1 (Homo sapiens, UniProt Q9Y6L6); settings: read-out: reported Km for OATP1B1; HEK293 cells; cited from earlier work
# T1 sequence (Q9Y6L6 1-691): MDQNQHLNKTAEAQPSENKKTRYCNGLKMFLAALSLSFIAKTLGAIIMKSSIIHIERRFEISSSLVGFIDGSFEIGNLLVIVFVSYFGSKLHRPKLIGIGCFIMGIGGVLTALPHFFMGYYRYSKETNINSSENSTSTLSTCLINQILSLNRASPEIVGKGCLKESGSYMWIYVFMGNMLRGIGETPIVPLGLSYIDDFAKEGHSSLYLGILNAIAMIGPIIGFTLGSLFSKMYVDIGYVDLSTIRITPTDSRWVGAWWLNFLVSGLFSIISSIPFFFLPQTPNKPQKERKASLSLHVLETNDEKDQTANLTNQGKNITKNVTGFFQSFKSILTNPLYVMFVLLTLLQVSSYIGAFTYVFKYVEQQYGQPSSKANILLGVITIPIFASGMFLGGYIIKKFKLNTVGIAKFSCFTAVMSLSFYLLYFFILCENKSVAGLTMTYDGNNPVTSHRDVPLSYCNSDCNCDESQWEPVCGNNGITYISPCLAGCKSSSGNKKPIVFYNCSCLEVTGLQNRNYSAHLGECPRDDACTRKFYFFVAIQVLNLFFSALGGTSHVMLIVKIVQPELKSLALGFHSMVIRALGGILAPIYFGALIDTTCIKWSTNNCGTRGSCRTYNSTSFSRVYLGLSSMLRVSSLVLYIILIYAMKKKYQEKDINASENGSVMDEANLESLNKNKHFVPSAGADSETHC
# HEK293-OATP1B1 = test: LDH assay; assay type: cell-based, human; settings: 1 h pre-incubation, EVR 0.001–10 µM, SIR 0.01–5 µM
# OATP1B1 [2] = target: T1, OATP1B1; test: Static R-value model for OATP1B1-mediated DDI
# mTOR C1 = test: Immunoblot of phosphorylated p70S6K; assay type: cell-based, human; settings: 1 h pre-incubation: EVR 0.2 µM, SIR 0.5 µM, INK-128 10 µM; vs vehicle control
# P-gp = settings: Caco-2 monolayers; cited from earlier work
# CYP3A5 = settings: cited from earlier work
# [3] = cited from earlier work
# CYP3A4 = settings: cited from earlier work
# mTOR C2 = test: Immunoblot of phosphorylated AKT; assay type: cell-based, human; settings: 1 h pre-incubation: EVR 0.2 µM, SIR 0.5 µM, INK-128 10 µM; vs vehicle control
# HEK293-OATP1B3 = settings: 1 h pre-incubation, EVR 0.001–10 µM, SIR 0.01–5 µM
# OATP1B1 [4] = target: T1, OATP1B1; settings: for OATP1B1-mediated transport ([3H]-E217βG accumulation): 1 h pre-incubation alone: EVR 0.2 µM, SIR 0.5 µM, INK-128 10 µM; for OATP1B1-mediated transport of [3H]-E1S after pre-incubation / OATP1B1-mediated transport of [3H]-rosuvastatin after pre-incubation: 1 h pre-incubation, EVR 0.1 or 0.2–10 µM, SIR 0.1–5 µM, 0.5 min, concentration-dependent, p<0.001; for OATP1B1-mediated transport of [3H]-E1S after pre-incubation: E1S 25 nM; for OATP1B1-mediated transport of [3H]-rosuvastatin after pre-incubation: rosuvastatin 20 nM
# OATP1B1 [5] = target: T1, OATP1B1; test: Transport kinetics of OATP1B1-mediated E217βG transport in HEK293 cells; assay type: cell-based; settings: co-incubation with 5 µM inhibitor, without pre-incubation
# OATP1A2 = settings: cited from earlier work
# [6] = human erythrocytes, blood concentration range 5–100 ng/ml; cited from earlier work
# [7] = cited from earlier work; remark: listed apart in the source
# OATP1B1 [8] = target: T1, OATP1B1; settings: substrate E1S; without pre-incubation; cited from earlier work
# OATP1B3 [9] = target: T2, OATP1B3 (Homo sapiens, UniProt Q9NPD5); test: Inhibition of OATP1B3-mediated [3H]-CCK-8 transport in HEK293-OATP1B3 cells; assay type: cell-based; settings: washing; for OATP1B3-mediated transport ([3H]-CCK-8 accumulation): 1 h pre-incubation alone: EVR 0.2 µM, SIR 0.5 µM, INK-128 10 µM; for OATP1B3-mediated [3H]CCK-8 accumulation: 1 h pre-incubation with EVR 0.2 µM
# T2 sequence (Q9NPD5 1-702): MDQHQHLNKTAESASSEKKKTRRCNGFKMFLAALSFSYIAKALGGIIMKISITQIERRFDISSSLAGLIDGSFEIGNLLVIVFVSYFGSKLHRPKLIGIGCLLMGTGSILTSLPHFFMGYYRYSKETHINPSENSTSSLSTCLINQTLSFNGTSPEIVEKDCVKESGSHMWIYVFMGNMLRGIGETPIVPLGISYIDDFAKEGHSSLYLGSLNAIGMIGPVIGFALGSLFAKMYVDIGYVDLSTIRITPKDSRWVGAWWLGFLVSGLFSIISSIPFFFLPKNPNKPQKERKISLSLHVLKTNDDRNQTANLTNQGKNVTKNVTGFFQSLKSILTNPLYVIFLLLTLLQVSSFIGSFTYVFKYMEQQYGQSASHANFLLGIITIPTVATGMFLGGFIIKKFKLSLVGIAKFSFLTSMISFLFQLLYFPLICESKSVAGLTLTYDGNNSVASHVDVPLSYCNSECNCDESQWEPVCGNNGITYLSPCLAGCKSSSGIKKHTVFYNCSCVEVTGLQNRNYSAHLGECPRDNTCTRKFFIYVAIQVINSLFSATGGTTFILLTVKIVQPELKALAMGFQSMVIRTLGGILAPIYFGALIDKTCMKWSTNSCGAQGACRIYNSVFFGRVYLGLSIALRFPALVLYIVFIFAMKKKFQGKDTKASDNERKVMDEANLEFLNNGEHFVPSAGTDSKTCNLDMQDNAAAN
# OATP1B3 [10] = target: T2, OATP1B3; settings: cited from earlier work
# [11] = from co-incubation IC50, rosuvastatin
# [12] = from pre+co-incubation IC50, E217βG
# [13] = from pre+co-incubation IC50, rosuvastatin
# [14] = IC50, [3H]-E1S (25 nM, 0.5 min), co-incubation
# [15] = IC50, [3H]-E1S (25 nM, 0.5 min), pre+co-incubation (1 h pre-incubation)
# [16] = IC50, [3H]-E217βG (1 µM, 2 min), co-incubation
# [17] = IC50, [3H]-E217βG (1 µM, 2 min), pre+co-incubation (1 h pre-incubation)
# [18] = IC50, [3H]-rosuvastatin (20 nM, 0.5 min), co-incubation
# [19] = IC50, [3H]-rosuvastatin (20 nM, 0.5 min), pre+co-incubation (1 h pre-incubation)
R (OATP1B1 [2]; [11]),R (OATP1B1 [2]; [12]),R (OATP1B1 [2]; [13]),OATP1B1-mediated transport ([3H]-E217βG accumulation) (OATP1B1 [4]; washing),OATP1B1-mediated transport of [3H]-E1S after pre-incubation (OATP1B1 [4]),OATP1B1-mediated transport of [3H]-rosuvastatin after pre-incubation (OATP1B1 [4]),IC50 (OATP1B1 [4]; [14]) [nM],IC50 (OATP1B1 [4]; [15]) [nM],IC50 (OATP1B1 [4]; [16]) [nM],IC50 (OATP1B1 [4]; [17]) [nM],IC50 (OATP1B1 [4]; [18]) [nM],IC50 (OATP1B1 [4]; [19]) [nM],effect on Vmax of OATP1B1 (OATP1B1 [5]),increase of Km of OATP1B1 (OATP1B1 [5]),OATP1B3-mediated transport ([3H]-CCK-8 accumulation) (OATP1B3 [9]),Compound,Km (OATP1B1 [1]) [µM],toxicity (LDH assay) (HEK293-OATP1B1),amount of phosphorylated p70S6K at T389 (mTOR C1),phosphorylation of AKT at S473 (mTOR C2),toxicity (LDH assay) (HEK293-OATP1B3),further results
,,,,,,,,,,,,,,,"C[C@]12CC[C@@H]3c4ccc(OS(=O)(=O)O)cc4CC[C@H]3[C@@H]1CCC2=O [E1S, estrone-3-sulfate]",0.46,,,,,
,,,,,,,,,,,,,,,"C[C@]12CC[C@@H]3c4ccc(O)cc4CC[C@H]3[C@@H]1CC[C@@H]2O[C@@H]1O[C@H](C(=O)O)[C@@H](O)[C@H](O)[C@H]1O [E217βG, estradiol 17 β-D-glucuronide]",8.29,,,,,
1.03 (1.02–1.09),1.19 (1.16–1.26),1.23 (1.10–1.42),0.67 ± 0.02 fold of control,significantly decreased,significantly decreased,610 ± 80,160 ± 20,480 ± 70,230 ± 60,1580 ± 920,190 ± 70,1.2–1.7 fold vs. CTL,6–10 fold,0.60 ± 0.03 fold of control,"CO[C@H]1C[C@@H]2CC[C@@H](C)[C@@](O)(O2)C(=O)C(=O)N2CCCC[C@H]2C(=O)O[C@H]([C@H](C)C[C@@H]2CC[C@@H](OCCO)[C@H](OC)C2)CC(=O)[C@H](C)/C=C(\C)[C@@H](O)[C@@H](OC)C(=O)[C@H](C)C[C@H](C)/C=C/C=C/C=C/1C [EVR, everolimus]",,negligible toxicity,markedly reduced,did not inhibit,negligible toxicity,"basolateral-to-apical vs apical-to-basolateral transport (P-gp): ~ 20 fold; Ki (CYP3A5; CYP3A5): 90 nM; fu,mic (CYP3A5): 0.14; Compound type [3]: Neutral; Ki (CYP3A4; CYP3A4): 90 nM; fu,mic (CYP3A4): 0.14; Ki (OATP1B1 [4]): 22 nM; OATP1B1-mediated rosuvastatin accumulation (OATP1B1 [4]; 1 h pre-incubation with EVR 0.2 µM, washing, 4 h in fresh EVR-free medium): 0.87 ± 0.03 fold of CTL; OATP1B1-mediated transport of [3H]rosuvastatin (OATP1B1 [4]; after 1 h pre-incubation with EVR 0.2 µM, washing): 0.54 ± 0.07 fold of control; inhibition of OATP1A2 (OATP1A2): inhibit; erythrocyte binding [6]: approximately 85%; Vss [7]: 1.55 (CV 36.0%) L/kg; steady-state AUC vs single dose AUC [7]: approximately 1.5 fold higher; time to steady state ([7]; multiple doses, 10 mg daily): around 7 days; IC50 (OATP1B1 [8]): 4100 ± 1100 nM; OATP1B3-mediated [3H]CCK-8 accumulation (OATP1B3 [9]; 4 h in EVR-free medium): 0.76 ± 0.04 fold of CTL; OATP1B3-mediated [3H]CCK-8 accumulation (OATP1B3 [9]; 6 h in EVR-free medium): 0.73 ± 0.04 fold of CTL; OATP1B3-mediated [3H]CCK-8 accumulation (OATP1B3 [9]; 22 h in EVR-free medium): 0.81 ± 0.06 fold of CTL; OATP1B3-mediated transport of [3H]CCK-8 (OATP1B3 [9]; after 1 h pre-incubation with EVR 0.2 µM): 0.76 ± 0.05 fold of control"
,,,did not significantly affect,,,,,,,,,,,did not significantly affect,CC(C)n1nc(-c2ccc3oc(N)nc3c2)c2c(N)ncnc21 [INK-128],,,markedly reduced,markedly reduced,,
1.00 (1.00–1.03),1.01 (1.01–1.02),1.01 (1.01–1.03),0.60 ± 0.05 fold of control,significantly decreased,significantly decreased,830 ± 100,650 ± 120,640 ± 160,220 ± 40,560 ± 300,320 ± 110,1.2–1.7 fold vs. CTL,6–10 fold,0.49 ± 0.03 fold of control,"CO[C@H]1C[C@@H]2CC[C@@H](C)[C@@](O)(O2)C(=O)C(=O)N2CCCC[C@H]2C(=O)O[C@H]([C@H](C)C[C@@H]2CC[C@@H](O)[C@H](OC)C2)CC(=O)[C@H](C)/C=C(\C)[C@@H](O)[C@@H](OC)C(=O)[C@H](C)C[C@H](C)/C=C/C=C/C=C/1C [SIR, sirolimus]",,negligible toxicity,markedly reduced,did not inhibit,negligible toxicity,"R (OATP1B1 [2]): 1.00 (1.00–1.01); R (OATP1B1 [2]; from the previously published co-incubation IC50 (E1S, ref 24)): 1.00; inhibition of OATP1A2 (OATP1A2): inhibit; time to steady state ([7]; multiple twice daily doses of 0.5–6.5 mg/m^2, stable renal transplant patients): 5 to 7 days; IC50 (OATP1B1 [8]): 9800 ± 1100 nM"
,,,,,,,,,,,,,,,cholecystokinin 8 [CCK-8],,,,,,Km (OATP1B3 [10]): 3.8 µM

# Source: paper PMC6759397 (Journal of pharmaceutical sciences, 2019)
